Laboratory results published in US11932877B2, “Human fibrolamellar hepatocellular carcinomas (hFL-HCCs)” (priority 2015, dated 2024).
“Also recorded” adds a separate entry of the source.

Columns and labels:
hFL-HCC = test: Treatment of the hFL-HCC patient from whom TU-2010 was derived; type: in vivo, human; conditions: for clinical response of the patient's tumor: one patient, metastatic hFL-HCC; for disease course under treatment / tolerability in the patient: Paclitaxel and thalidomide given together, chosen from sensitivity studies
hFL-HCC cells of TU-2010 [1] = test: Cell proliferation assay (WST-1) on monolayer cultures of hFL-HCC cells; type: cell-based, human
Experimental: For cell proliferation assays, 3×10^4 hFL-HCC cells of TU-2010 were depleted of host mesenchymal cells by magnetic sorting of xenotransplantable tumor cell suspension and then were seeded into each well of a 96-well plate and cultured overnight with Kubota's Medium+5% FBS. […] Cell proliferation was evaluated using the Cell Proliferation Reagent WST-1 (Roche Applied Science, Mannheim, Germany). After incubation at 37° C. for 2 hours, the absorbance at 450 nm was measured.

hFL-HCC cells of TU-2010 [2] = test: Spheroid formation assay; type: cell-based, human; conditions: spheroids in serum-free Kubota's Medium, low attachment plates
Experimental: For secondary spheroid formation assays, the 1st spheroids were collected, subsequently dissociated with NeuroCult Chemical Dissociation Kit ([…] Technologies). Cell suspension was centrifuged at 700 rpm 10 min and resuspended with KM. After 2 weeks, the number of spheroids (100 μm>) were counted.

## O=c1[nH]cc(F)c(=O)[nH]1 [5-FU]
hFL-HCC
  clinical response of the patient's tumor: limited or no response

## CS(=O)(=O)c1ccc(C(=O)Nc2ccc(Cl)c(-c3ccccn3)c2)c(Cl)c1 [GDC-0449, Vismodegib]
hFL-HCC cells of TU-2010 [1]; 4 μM and especially 20 μM, drug added for 3 days
  suppression of survival and proliferation (growth) of hFL-HCC cells: strongly inhibited; also recorded: suppress survival and proliferation
hFL-HCC cells of TU-2010 [2]
  suppression of hFL-HCC survival and growth in spheroid cultures compared with monolayer cultures: even more sensitive to inhibition; also recorded: far more effective

## CC(=O)O[C@H]1C(=O)[C@@]2(C)[C@H]([C@H](OC(=O)c3ccccc3)[C@]3(O)C[C@H](OC(=O)[C@H](O)[C@@H](NC(=O)c4ccccc4)c4ccccc4)C(C)=C1C3(C)C)[C@]1(OC(C)=O)CO[C@@H]1C[C@@H]2O [Paclitaxel]
hFL-HCC
  disease course under treatment: continued disease progression
  tolerability in the patient: poorly tolerated

## O=C(CCCCCCC(=O)Nc1ccccc1)NO [SAHA, suberoylanilide hydroxamic acid]
hFL-HCC cells of TU-2010 [2]
  suppression of hFL-HCC survival and growth in spheroid cultures compared with monolayer cultures: even more sensitive to inhibition

## O=C(CCCCCCC(=O)NO)NO [SBHA, suberic bis-hydroxamic acid]
hFL-HCC cells of TU-2010 [1]; 10 μM and 20 μM, drug added for 3 days
  inhibitory effect on hFL-HCC cell survival and growth: strong inhibitory effects
hFL-HCC cells of TU-2010 [1]; 10 μM and 50 μM
  inhibition of hFL-HCC cell growth: strongly inhibited
hFL-HCC cells of TU-2010 [2]
  suppression of hFL-HCC survival and growth in spheroid cultures compared with monolayer cultures: even more sensitive to inhibition

## N.N.[Cl][Pt][Cl] [cisplatinum]
hFL-HCC
  clinical response of the patient's tumor: limited or no response

## COc1cccc2c1C(=O)c1c(O)c3c(c(O)c1C2=O)C[C@@](O)(C(=O)CO)C[C@@H]3O[C@H]1C[C@H](N)[C@H](O)[C@H](C)O1 [doxorubicin]
hFL-HCC
  clinical response of the patient's tumor: limited or no response

## Nc1ccn([C@@H]2O[C@H](CO)[C@@H](O)C2(F)F)c(=O)n1 [gemcitabine]
hFL-HCC
  clinical response of the patient's tumor: limited or no response

## CNC(=O)c1cc(Oc2ccc(NC(=O)Nc3ccc(Cl)c(C(F)(F)F)c3)cc2)ccn1 [sorafenib]
hFL-HCC
  clinical response of the patient's tumor: limited or no response

## O=C1CCC(N2C(=O)c3ccccc3C2=O)C(=O)N1 (centres unmarked) [thalidomide]
hFL-HCC
  disease course under treatment: continued disease progression
  tolerability in the patient: poorly tolerated
  clinical response of the patient's tumor: limited or no response

## bevacizumab
hFL-HCC
  clinical response of the patient's tumor: limited or no response
